Reference: US5622948A, “Pyrrole pyridazine and pyridazinone anti-inflammatory agents” (Syntex (U.S.A.) Inc., priority 1994, dated 1997)

Tests used:
[1] = physical stability / phase transformation of crystal forms of Compound (16); type: physicochemical; conditions: for conversion when suspended in alcohol or ethyl acetate: suspended in alcohol (Phase II: alcohol or ethyl acetate)
Source text: Phase I was obtained when Compound (16) was recrystallized from methanol, ethanol, ethanol/acetic acid, acetone, ethyl acetate, ethyl acetate/acetic acid, dichloromethane, tetrahydrofuran or tetrahydrofuran/ethyl acetate.
Phase II was obtained when Compound (16) was recrystallized from toluene.
Phase III was obtained by rapid precipitation of Compound (16) from acetic acid/water.
Hydrate I, a monohydrate, was also obtained by slow recrystallization of Compound (16) from acetic acid/water.

stomach and intestines = conditions: general statement (background); cited from earlier work
[2] = tested on: PGE2 levels in the air-pouch exudate; assay: PGE2 in exudate of carrageenan-induced inflammation (air-pouch model) in rats; type: in vivo, rat; conditions: 2-5 mg/kg
stomach PGE2 = type: in vivo, rat; conditions: 2-5 mg/kg
Experimental: To examine the effect of Compound (16) on prostaglandin (PG) synthesis in inflamed tissues, Compound (16) was tested in a carrageenan-induced inflammation (air-pouch model) in rats. PGE2 levels in the air-pouch exudate were measured by enzyme immunoassay in rats treated with 0.1-30 mg/kg of Compound (16). […] […].
To test the effects of Compound (16) on PG synthesis in non-inflamed tissue, PGE2 levels were measured in the stomach of rats from the above experiments. […]

[3] = tested on: adjuvant-induced arthritis; assay: adjuvant-induced arthritis in the rat; type: in vivo; conditions: second test
COX II = target: T1, COX II (Homo sapiens, UniProt P35354); assay: radiometric assay, COX II inhibition (human recombinant, baculovirus expressed, partially purified); type: biochemical; design: A 1.8 Kb DNA fragment containing the coding region of human COX II was generated by PCR; made in house; host or cells: Sf9 insect cells, baculovirus; conditions: radiometric assay, human recombinant baculovirus expressed enzyme; read-out: COX II IC50 (Table 2)
T1 sequence (P35354 18-604): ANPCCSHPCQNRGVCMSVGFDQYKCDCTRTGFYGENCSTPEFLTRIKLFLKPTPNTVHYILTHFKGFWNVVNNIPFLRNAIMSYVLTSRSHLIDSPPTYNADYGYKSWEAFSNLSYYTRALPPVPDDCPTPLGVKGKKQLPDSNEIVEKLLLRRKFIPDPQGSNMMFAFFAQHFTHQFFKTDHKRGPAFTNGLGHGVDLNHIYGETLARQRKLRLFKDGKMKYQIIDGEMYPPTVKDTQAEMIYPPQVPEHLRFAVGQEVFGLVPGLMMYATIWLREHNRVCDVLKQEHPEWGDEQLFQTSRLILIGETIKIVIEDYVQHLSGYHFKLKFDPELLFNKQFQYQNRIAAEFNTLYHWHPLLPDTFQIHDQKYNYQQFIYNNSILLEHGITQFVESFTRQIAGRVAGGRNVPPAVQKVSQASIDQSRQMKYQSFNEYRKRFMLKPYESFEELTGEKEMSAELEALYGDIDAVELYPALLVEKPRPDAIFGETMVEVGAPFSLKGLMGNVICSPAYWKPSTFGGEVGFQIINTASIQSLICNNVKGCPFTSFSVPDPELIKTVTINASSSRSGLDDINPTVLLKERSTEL
Experimental: (§1) Human prostaglandin G/H synthase I and II ("COX I" and "COX II") were expressed in the baculovirus expression system and purified to high levels.
(§2) As described above, human recombinant COX I and COX II were cloned and expressed in a baculovirus system. Partially purified COX I and COX II enzymes were used for screening compounds for their ability to inhibit COX I and COX II activity, as described below.
(§3) Compound (16), in 2 μl DMSO, and control samples (carrier vehicles only) were mixed with COX I or COX II samples (e.g. fractions from the chromatography columns) in polypropylene tubes and preincubated with 2 mM phenol for 5 minutes and then with 1 μM hematin for an additional 5 minutes. The 150 μl reaction mixture consisted of 50 mM Tris --HCl, pH 7.9, 2 mM EDTA, 10% glycerol, 200 μM phenol, 1 μM hematin, 1-25 μl sample and 20 μM 1-[^14 C] arachidonate (80.000-100.000 cpm/tube). After 45 seconds at room temperature, the reaction was terminated by adding 200 μl of 2N HCl and 750 μl water. An aliquot (950 μl) of the reaction mixture was loaded onto a 1 ml C~ Sep-Pak (J. T. Baker, Phillipsburg, N.J.) which had been previously washed with 2-3 ml methanol and equilibrated with 5-6 ml distilled water. Oxygenated products were quantitatively eluted with 3 ml of acetonitrile, H2 O and acetic acid (50:50:0.1, v/v) and the radioactivity in the eluate determined in a scintillation counter.
(§4) Human recombinant 10 min incubation with Compound (16)
(§5) baculovirus 45 sec incubation with 20 μM AA
(§6) partially purified Separation of radioactive products

COX I = COX I (Homo sapiens, UniProt P23219); assay: radiometric assay, COX I inhibition (human recombinant, baculovirus expressed, partially purified); type: biochemical; design: A 2 Kb fragment containing the coding region of COX I; made in house; host or cells: Sf9 insect cells, baculovirus (cDNA from Oxford Biomedical Research); conditions: radiometric assay, human recombinant baculovirus expressed enzyme; read-out: COX I IC50 (Table 2)
Experimental: as §1, §2, §3, §4, §5, §6

Chain of COX I (P23219 24-599): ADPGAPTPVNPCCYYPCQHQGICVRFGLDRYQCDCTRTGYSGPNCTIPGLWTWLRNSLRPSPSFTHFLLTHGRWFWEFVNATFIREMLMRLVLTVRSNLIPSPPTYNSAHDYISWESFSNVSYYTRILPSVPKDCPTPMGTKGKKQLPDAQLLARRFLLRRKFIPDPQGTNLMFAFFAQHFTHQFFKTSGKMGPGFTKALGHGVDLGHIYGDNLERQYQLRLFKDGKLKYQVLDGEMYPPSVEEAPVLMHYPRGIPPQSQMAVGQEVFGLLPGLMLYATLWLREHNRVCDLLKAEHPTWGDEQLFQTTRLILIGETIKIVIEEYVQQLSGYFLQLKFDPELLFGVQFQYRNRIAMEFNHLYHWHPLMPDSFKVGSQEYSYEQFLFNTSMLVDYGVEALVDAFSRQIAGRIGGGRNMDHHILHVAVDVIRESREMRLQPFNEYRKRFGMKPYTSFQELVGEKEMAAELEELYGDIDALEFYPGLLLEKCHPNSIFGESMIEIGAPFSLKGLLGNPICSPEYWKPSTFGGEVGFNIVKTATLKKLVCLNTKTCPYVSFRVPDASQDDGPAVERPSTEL

| IC50 (COX II) | IC50 (COX I) | SMILES | conversion when suspended in water [1] | conversion when suspended in alcohol or ethyl acetate [1] | further results |
| --- | --- | --- | --- | --- | --- |
| – | – | Cc1cc(Cc2ccc(=O)[nH]n2)n(C)c1C(=O)c1ccc(Cl)cc1 [Phase I] | converted to a monohydrate, Hydrate I | – | phase transformation on milling and micronization ([1]; milling and micronization): did not cause any phase transformation; physically stable for ([1]; unmilled (-200 μm), 40° C./75% relative humidity): at least 4 days |
| – | – | Cc1cc(Cc2ccc(=O)[nH]n2)n(C)c1C(=O)c1ccc(Cl)cc1 [Hydrate I] | – | can be converted back to Phase I | physical stability, duration ([1]; 40° C./75% relative humidity): 14 days; physical stability ([1]; 40° C./ambient relative humidity, within 11-95% relative humidity): physically stable; conversion on heating at 120° C. ([1]; 120° C.): phase conversion to another anhydrous crystal form; dehydration at temperatures below 100° C. ([1]; below 100° C., ambient conditions and 23% relative humidity): produced a metastable form that converted back to Hydrate I |
| – | – | Cc1cc(Cc2ccc(=O)[nH]n2)n(C)c1C(=O)c1ccc(Cl)cc1 [Phase II] | converted to another hydrate, Hydrate II | converted to Phase I | – |
| – | – | COc1ccc2c(c1)c(CC(=O)O)c(C)n2C(=O)c1ccc(Cl)cc1 [indomethacin, reference compound] | – | – | corrosiveness to the stomach and intestines of rats (stomach and intestines): highly corrosive to the stomach and intestines of rats; inhibition of PGE2 in the exudates [2]: > 70%; inhibition of stomach PGE2 (stomach PGE2): > 80%; inhibition of adjuvant-induced arthritis ([3]; 0.3 mg/kg/day): 66%; inhibition of adjuvant-induced arthritis ([3]; 0.6 mg/kg/day): 79% |
| – | – | Cc1cc(Cc2ccc(=O)[nH]n2)n(C)c1C(=O)c1ccc(Cl)cc1 [Phase III] | converted to Hydrate I | converted to Phase I | – |
| 0.2 µM | 35 µM | COc1ccc(C(=O)c2c(C)cc(Cc3ccc(=O)[nH]n3)n2C)cc1 [Compound 31, 6-[1,4-dimethyl-5-(4-methoxy-benzoyl)-1-H-pyrrol-2-ylmethyl]-2H-pyridazin-3-one] | – | – | – |
| 0.9 µM | > 1000 µM | Cc1ccc(C(=O)c2cc(Cl)c(Cc3ccc(=O)[nH]n3)n2C)cc1 [Compound 87, 6-[3-chloro-1-methyl-5-(4-methyl-benzoyl)-1H-pyrrol-2-ylmethyl]-2H-pyridazin-3-one] | – | – | – |
| 0.44 µM | 190 µM | C=Cc1ccc(C(=O)c2ccc(Cc3ccc(=O)[nH]n3)n2C)cc1 [Compound 54, 6-[1-methyl-5-(4-vinyl-benzoyl)-1H-pyrrol-2-ylmethyl]-2H-pyridazin-3-one] | – | – | – |
